Values of other authors as cited in PMC6021394, “Novel haptens and monoclonal antibodies with subnanomolar affinity for a classical analytical target, ochratoxin A” (Scientific Reports, 2018).

C[C@@H]1Cc2c(Cl)cc(C(=O)N[C@@H](Cc3ccccc3)C(=O)O)c(O)c2C(=O)O1 [OTA, Ochratoxin A]
tolerable weekly intake (European Food Safety Authority): 120 ng/kg of body weight | IARC carcinogenicity classification (possibly carcinogenic to humans): group 2B
